Laboratory results taken from US20090197955A1, “METHODS OF IMPROVING DHA DEPOSITION AND RELATED FUNCTION AND/OR DEVELOPMENT” (Monsanto Company, priority 2008, published 2009).

Experiment: Fatty acid composition of pig tissues (ham, loin, belly, skin) after feeding SDA ethyl ester diets, 35 day study
Format: in vivo, pigs
Details: 35 days
Experimental: A 35 day study was conducted to determine whether pigs fed a diet containing SDA could enhance tissues with improved fatty acid profiles including increased levels of SDA, EPA, and DHA.
Four test diets (Treatment 2, 3, 4, and 5) with SDA ethyl ester substituted for corn oil to provide 0.2, 0.4, 0.6 and 0.8% (w/w SDA active ingredient, as-is basis) were fed ad libitum to one pen of four pigs throughout the 35-day test period Table 4). All diets were fed in meal form. Treatment 6 was fed the same diet as Treatment 5, but for a duration of only 21 days.
All pigs were individually weighed at initiation of the acclimation and test period, and immediately prior to slaughter. Feed consumption per pen was recorded. Upon completion of the feeding period, pigs were slaughtered for tissue collection and carcass evaluation. Pigs were slaughtered using standard industry practices (electrical stunning, exsanguinations, scalding, dehairing and evisceration). Live weights prior to slaughter and hot carcass weights were recorded. The left side of each carcass was fabricated and samples were obtained from the loin (longissimus muscle), ham (semimembranosus muscle) and belly (a section from the center of the belly) for sensory evaluation, fatty acid, and proximate analysis. Prior to removing the sample for sensory and fatty and proximate analysis from the belly the firmness of the belly was evaluated using a flop test. At 24 hr postmortem fat thickness (10th rib), loin eye area (10th rib), visual color, firmness and marbling, Minolta color (L*a*b*), pH, and drip loss were measured.
In order to evaluate the fatty acid composition of pig tissues (loin, ham, skin, and belly), samples were stored at −80° C. until evaluation. After thawing, ˜22 g of fresh pig tissue was chopped into small pieces and thoroughly mixed before 10 g was sub sampled and lyophilized. Lyophilized samples were ground in 30 ml Sarstedt tubes with two ball bearings using a Mega Grinder. Ground samples (loin and ham: 50 mg; skin: 100 mg; belly: 150 mg; diet: 500 mg) were directly methylated with sulfuric acid in methanol (loin and ham: 1 mL; skin: 3 mL; belly: 10 mL; diet: 1.5 mL) sealed in the presence of butylated hydroxytoluene (50 mg BHT in 100 ml reagent) in reflux conditions of 90° C. Resultant fatty acid methyl esters (FAME's) were separated by capillary gas chromatography (GC) and detected by flame ionization detector (FID). The column used was a Supelco Omegawax 250 capillary column with dimensions of 30 m×0.25 mm×0.25 μm film thickness. The run time was 32 minutes. Peaks were identified based on their relative retention time compared to a FAME reference mixture. Quantification was achieved by using an internal standard (c15:0 triacylglyceride (TAG) for pig tissue samples and c17:0 TAG for diet samples). Results are reported as FA g/100 g fat with theoretical response correction.
For Table 6 below, each value represents g/100 g total fatty acids a mean of 4 samples (1 sample from each of 4 pigs) per treatment.

In the case of `CC/C=C\C/C=C\C/C=C\C/C=C\CCCCC(=O)O` [SDA, stearidonic acid], the “12:0, ham” value (0.2% SDA feed) is reported as 0.06 g FA per 100 g fat, the “14:0, ham” value (0.2% SDA feed) is reported as 1.06 g FA per 100 g fat and the “16:0, ham” value (0.2% SDA feed) is reported as 21.24 g FA per 100 g fat. The “16:1 n-7, ham” value (0.2% SDA feed) was 3.58 g FA per 100 g fat, the “16:1 n-9, ham” value (0.2% SDA feed) was 0.26 g FA per 100 g fat and the “18:0, ham” value (0.2% SDA feed) was 10.13 g FA per 100 g fat. For the same molecule, the “18:1 n-7, ham” value (0.2% SDA feed) was 4.55 g FA per 100 g fat, the “18:1 n-9, ham” value (0.2% SDA feed) was 40.91 g FA per 100 g fat and the “18:2 n-6 (LA), ham” value (0.2% SDA feed) was 8.86 g FA per 100 g fat. The “18:3 n-3 (ALA), ham” value (0.2% SDA feed) was 0.20 g FA per 100 g fat, the “18:3 n-6 (GLA), ham” value (0.2% SDA feed) was 0.08 g FA per 100 g fat and the “18:4 n-3 (SDA), ham” value (0.2% SDA feed) was 0.03 g FA per 100 g fat. The “20:0, ham” value (0.2% SDA feed) was 0.16 g FA per 100 g fat, the “20:1 n-7, ham” value (0.2% SDA feed) was 0.04 g FA per 100 g fat and the “20:1 n-9, ham” value (0.2% SDA feed) was 0.69 g FA per 100 g fat. For the same molecule, the “20:1 n-11, ham” value (0.2% SDA feed) was 0.04 g FA per 100 g fat, the “20:2 n-6, ham” value (0.2% SDA feed) was 0.38 g FA per 100 g fat and the “20:3 n-3, ham” value (0.2% SDA feed) was 0.03 g FA per 100 g fat. The “20:3 n-6 (DGLA), ham” value (0.2% SDA feed) was 0.29 g FA per 100 g fat, the “20:4 n-3 (ETA), ham” value (0.2% SDA feed) was 0.09 g FA per 100 g fat and the “20:4 n-6 (AA), ham” value (0.2% SDA feed) was 1.96 g FA per 100 g fat. The “20:5 n-3 (EPA), ham” value (0.2% SDA feed) was 0.17 g FA per 100 g fat, the “22:0, ham” value (0.2% SDA feed) was 0.03 g FA per 100 g fat and the “22:1 n-9, ham” value (0.2% SDA feed) was 0.00 g FA per 100 g fat. The “22:1 n-11, ham” value (0.2% SDA feed) was 0.00 g FA per 100 g fat, the “22:1 n-13, ham” value (0.2% SDA feed) was 0.00 g FA per 100 g fat and the “22:2 n-7, ham” value (0.2% SDA feed) was 0.00 g FA per 100 g fat. The “22:3 n-6, ham” value (0.2% SDA feed) was 0.24 g FA per 100 g fat, the “22:5 n-3 (DPA), ham” value (0.2% SDA feed) was 0.39 g FA per 100 g fat and the “22:6 n-3 (DHA), ham” value (0.2% SDA feed) was 0.09 g FA per 100 g fat. The “24:1 n-9, ham” value (0.2% SDA feed) was 0.04 g FA per 100 g fat, the “Total PUFA, ham” value (0.2% SDA feed) was 12.82 g FA per 100 g fat and the “Total monoenes, ham” value (0.2% SDA feed) was 50.11 g FA per 100 g fat. The “Total n-3, ham” value (0.2% SDA feed) was 1.01 g FA per 100 g fat, the “Total n-6, ham” value (0.2% SDA feed) was 11.81 g FA per 100 g fat and the “Total saturates, ham” value (0.2% SDA feed) was 32.68 g FA per 100 g fat. The “n-6/n-3, ham” value (0.2% SDA feed) was 11.69, the “DHA enrichment in ham” value (0.2-0.8% SDA) was “enriched in ham in a dose dependent manner” and the “DPA enrichment in loin and ham tissues” value (0.2-0.8% SDA) was “enriched in loin and ham tissues in a dose dependent manner”. For the same molecule, the “SDA, ETA and EPA enrichment in belly, loin, ham and skin tissues” value (0.2-0.8% SDA) was “enriched in belly, loin, ham, and skin tissues in a dose dependent manner”, the “12:0, ham” value (0.4% SDA feed) was 0.06 g FA per 100 g fat and the “14:0, ham” value (0.4% SDA feed) was 1.10 g FA per 100 g fat. For the same molecule, the “16:0, ham” value (0.4% SDA feed) was 21.45 g FA per 100 g fat, the “16:1 n-7, ham” value (0.4% SDA feed) was 3.45 g FA per 100 g fat and the “16:1 n-9, ham” value (0.4% SDA feed) was 0.25 g FA per 100 g fat. For the same molecule, the “18:0, ham” value (0.4% SDA feed) was 10.74 g FA per 100 g fat, the “18:1 n-7, ham” value (0.4% SDA feed) was 4.28 g FA per 100 g fat and the “18:1 n-9, ham” value (0.4% SDA feed) was 39.94 g FA per 100 g fat. The “18:2 n-6 (LA), ham” value (0.4% SDA feed) was 9.18 g FA per 100 g fat, the “18:3 n-3 (ALA), ham” value (0.4% SDA feed) was 0.26 g FA per 100 g fat and the “18:3 n-6 (GLA), ham” value (0.4% SDA feed) was 0.09 g FA per 100 g fat. The “18:4 n-3 (SDA), ham” value (0.4% SDA feed) was 0.03 g FA per 100 g fat, the “20:0, ham” value (0.4% SDA feed) was 0.16 g FA per 100 g fat and the “20:1 n-7, ham” value (0.4% SDA feed) was 0.04 g FA per 100 g fat. The “20:1 n-9, ham” value (0.4% SDA feed) was 0.66 g FA per 100 g fat, the “20:1 n-11, ham” value (0.4% SDA feed) was 0.04 g FA per 100 g fat and the “20:2 n-6, ham” value (0.4% SDA feed) was 0.36 g FA per 100 g fat. For the same molecule, the “20:3 n-3, ham” value (0.4% SDA feed) was 0.04 g FA per 100 g fat, the “20:3 n-6 (DGLA), ham” value (0.4% SDA feed) was 0.32 g FA per 100 g fat and the “20:4 n-3 (ETA), ham” value (0.4% SDA feed) was 0.14 g FA per 100 g fat. The “20:4 n-6 (AA), ham” value (0.4% SDA feed) was 1.90 g FA per 100 g fat, the “20:5 n-3 (EPA), ham” value (0.4% SDA feed) was 0.23 g FA per 100 g fat and the “22:0, ham” value (0.4% SDA feed) was 0.04 g FA per 100 g fat. For the same molecule, the “22:1 n-9, ham” value (0.4% SDA feed) was 0.01 g FA per 100 g fat, the “22:1 n-11, ham” value (0.4% SDA feed) was 0.00 g FA per 100 g fat and the “22:1 n-13, ham” value (0.4% SDA feed) was 0.00 g FA per 100 g fat. For the same molecule, the “22:2 n-7, ham” value (0.4% SDA feed) was 0.00 g FA per 100 g fat, the “22:3 n-6, ham” value (0.4% SDA feed) was 0.26 g FA per 100 g fat and the “22:5 n-3 (DPA), ham” value (0.4% SDA feed) was 0.44 g FA per 100 g fat. For the same molecule, the “22:6 n-3 (DHA), ham” value (0.4% SDA feed) was 0.08 g FA per 100 g fat.
